Several values for one entry are separate records, joined by “and”; a condition that tells them apart may be missing. Equal entries are not always repeated.
Columns and labels:
[1] = system: human uterine fibroid xenografts; design: method as in PMID 31754172; settings: ref [2], cited from earlier work
[2] = target: T1, human progesterone receptor ligand binding domain (PR-LBD) (Homo sapiens, UniProt P06401); assay: Competitive binding, PR ligand binding domain; settings: compared to progesterone
T1 construct: purchased Thermo Fisher Scientific
Procedure: (§1) The study aimed to characterize the competitive binding profile of EC313 to relevant human nuclear receptors. For the assays, commercially available ‘ligand binding domain’ proteins were purchased (Thermo Fisher Scientific). In addition, the full-length receptor proteins were expressed in transfected HI insect cells using the `Bac-to-bac Baculovirus expression system´ (Thermo Fisher Scientific). Cellular lysates served as receptor preparation. Receptor protein preparations were incubated with tritiated reference ligands and EC313 or reference steroids at concentrations between 0.1 and 1000 nM for 2h at 4°C to reach equilibrium. Subsequently, unbound steroids were adsorbed to dextran-coated charcoal (Sigma Aldrich), separated by filtration, and the remaining radioactivity was quantified in a ß-counter (Perkin Elmer). Displacement curves were fitted using the GraphPad Prism 7 free version to obtain EC50 values. Relative binding affinity (RBA [%], (C50ref/C50test)*100) and the competition coefficient (C50test/C50ref) were used to describe the relative binding potency of EC313 compared to the reference ligands.

[3] = target: T2, hGR-LBD purified recombinant protein (Homo sapiens, UniProt P04150); assay: Competitive binding, GR ligand binding domain
T2 construct: purchased Thermo Fisher Scientific
T2 sequence (P04150 524-758 limits assumed): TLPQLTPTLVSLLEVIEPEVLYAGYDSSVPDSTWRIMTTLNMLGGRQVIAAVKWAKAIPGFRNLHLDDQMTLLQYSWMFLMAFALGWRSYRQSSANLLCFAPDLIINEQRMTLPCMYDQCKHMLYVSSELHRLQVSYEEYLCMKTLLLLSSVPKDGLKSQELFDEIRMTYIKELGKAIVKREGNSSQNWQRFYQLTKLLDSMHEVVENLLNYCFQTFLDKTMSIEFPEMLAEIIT
Procedure: as §1

GR = target: T3, GR (Homo sapiens, UniProt P04150); assay: GR transactivation (HELA, MMTV-LUC); assay type: cell-based; design: HELA cells line carrying endogenous glucocorticoid protein; endogenous in cells; host or cells: HELA, stably transfected with the reporter only
T3 sequence (P04150 1-777): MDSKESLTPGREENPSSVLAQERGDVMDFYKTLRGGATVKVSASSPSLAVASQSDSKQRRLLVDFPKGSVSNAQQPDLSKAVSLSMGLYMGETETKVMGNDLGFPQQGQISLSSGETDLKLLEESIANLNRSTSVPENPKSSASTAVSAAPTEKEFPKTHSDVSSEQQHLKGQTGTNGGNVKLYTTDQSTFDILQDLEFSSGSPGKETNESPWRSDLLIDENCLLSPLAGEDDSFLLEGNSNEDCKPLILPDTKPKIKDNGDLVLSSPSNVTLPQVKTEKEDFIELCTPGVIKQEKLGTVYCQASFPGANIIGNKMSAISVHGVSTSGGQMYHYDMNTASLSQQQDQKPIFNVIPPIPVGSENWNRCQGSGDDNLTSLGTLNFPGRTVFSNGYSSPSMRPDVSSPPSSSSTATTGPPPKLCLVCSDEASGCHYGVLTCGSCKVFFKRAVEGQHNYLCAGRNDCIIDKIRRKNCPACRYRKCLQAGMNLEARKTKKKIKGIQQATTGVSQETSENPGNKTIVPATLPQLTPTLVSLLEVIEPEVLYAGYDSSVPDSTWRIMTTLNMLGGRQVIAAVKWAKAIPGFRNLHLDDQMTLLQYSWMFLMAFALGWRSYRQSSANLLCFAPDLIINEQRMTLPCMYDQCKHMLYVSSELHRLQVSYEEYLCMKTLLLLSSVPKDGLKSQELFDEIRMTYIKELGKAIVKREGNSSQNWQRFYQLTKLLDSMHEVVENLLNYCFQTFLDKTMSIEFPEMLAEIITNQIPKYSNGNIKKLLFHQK
Procedure: HELA cells line carrying endogenous glucocorticoid protein were cultured in order to study gene expression on the transcriptional level under the influence of the tested compounds. The cells were transfected with reporter vector MMTV/LUC. To produce high protein overexpression, stable transfection was carried out. […] Agonist and antagonist properties of EC313 toward tested receptor GR were analyzed using luminescence detection.
In order to develop the transfection assay, plasmids were generated and isolated. Vector pGL4.36 coding the glucocorticoid receptor responsive element MMTV and firefly luciferase reporter vector [luc2P/Hygro] were used as a reporter system (pGL4.36-MMTV/LUC). The cells were transfected with reporter vector MMTV/LUC.
stable transfection with reporter vector was performed on a 6-well plate (0.5x10^6 cells per well) in culture medium (EMEM, 10% FBS, NEAA, sodium […], L-glutamine). Briefly, according to the transfection procedure, cells were passaged, and they grew in a culture medium containing an appropriate concentration of the antibiotic (Hygromycin 150 µg/mL). Resistance to Hygromycin gene, which had been transfected together with the reporter vector to the cells, only allowed positively transfected cells to grow in this medium. Therefore, growing cell clones were selected for further steps as stable transfectants.
After 24h incubation of cells with the tested compounds, luciferase activity was measured using VICTOR™ X Multilabel Plate Reader -Perkin Elmer.

[4] = GR-LBD, EC313 relative to Dexamethasone

T1 sequence (P06401 679-913 limits assumed): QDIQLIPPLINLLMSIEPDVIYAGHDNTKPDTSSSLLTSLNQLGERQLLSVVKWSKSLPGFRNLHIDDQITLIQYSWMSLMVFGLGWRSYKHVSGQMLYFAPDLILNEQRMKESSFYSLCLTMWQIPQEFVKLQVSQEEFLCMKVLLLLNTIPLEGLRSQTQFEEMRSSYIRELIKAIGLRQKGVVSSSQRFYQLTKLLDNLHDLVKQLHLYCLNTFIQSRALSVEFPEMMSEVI

## C[C@]12C[C@H](c3ccc(-c4ccoc4)cc3)C3=C4CCC(=O)C=C4CC[C@H]3[C@@H]1CC[C@]21OCCC1=C(F)F [EC313]
[1]; Part A, 0.1 and 1.0 mg EC313/kg/day
  uterine fibroid markers desmin and collagen: markedly reduced
[1]; Part A, 0.1 and 1.0 mg/kg/day s.c., 60 days
  fibroid xenograft weight: reduced the fibroid xenograft weight dose-dependently
[1]; Part A, vs control p< 0.001, vs UPA p< 0.01
  levels of ER and PR in grafts (immunohistochemistry): reduced
[1]; Part A, vs control, p< 0.0001
  E2-induced proliferation in xenograft fibroids: blocked significantly
[1]; demonstrated previously
  lowest effective dosage, uterine fibroid model: 0.1 mg/kg/day s.c.
[2]
  affinity to the ligand binding domain: the same as that of progesterone
[3]; [4]
  Comp. Coefficient: 2 and 1.7
  RBA: 60%
[3]; hGR-LBD purified recombinant protein
  IC50: 19.1 ± 0.9 nM
GR
  activity on GR in transactivation: weak inhibitor
GR; comparative transactivation profile, read-out: Potency, GR Antagonism
  IC50: 100 nM

— article PMC10520499, “Next step in the development of mesoprogestins: the preclinical profile of EC313” (Frontiers in Endocrinology, 2023)
